Laboratory results as given in US20120122148A1, “Media For The Specific Detection Of Gram-Negative Bacteria Resistant To Beta-Lactam Antibiotics” (bioMerieux, SA, priority 2009, published 2012).

Legend:
Format in all cases: cell-based
[1] = system: Escherichia coli 0505101 (ESBL); assay: Growth and enzymatic activity on ChromID CPS-based selective media; set-up: Enz act.: key to the marks not given beside the values; conditions: cefpodoxime 4 mg/l (T), cefepime 0.25 mg/l (A), cefamandole 3 mg/l (B), cefuroxime 3 mg/l (C), each with 300 mg/l cloxacillin
Description: (§1) Choice of strains: The inventors selected strains which make it possible to evaluate the activity of antibiotics with respect to Gram-negative species: enterobacteria and nonfermenting bacilli. In particular, ESBL-producing strains, high-level cephalosporinase-producing strains (HL Case) and strains without a particular resistance profile, termed wild-type strains, were used.
(§2) Preparation of media: The media tested were media composed of the peptone base of the ChromID CPS medium (bioMérieux ref 43541) to which were added, after autoclaving, in molten media, 300 mg/l cloxacillin and, for medium T: 4 mg/l cefpodoxime, for medium A: 0.25 mg/L of cefepime, for medium B: 3 mg/l of cefamandole and for medium C: 3 mg/l of cefuroxime.
(§3) Inoculation of media: The media are inoculated by carrying out a 3-quadrant streaking method using bacterial suspensions at 0.5 McF. The media are then incubated for 24 hours at 37° C.
(§4) Reading of media: The media are observed visually after 18 h and 24 hours of incubation, the growth density and also the colorations and coloration strengths are evaluated according to the scale below: • − or 0: absence of growth or of expression of enzymatic acitivity (i.e. no coloration) • +: weak growth, or enzymatic activity • ++: very strong growth density or strong enzymatic acitivity (very strong coloration)

[2] = system: ESBL-producing strains, strains producing an HL Case, wild-type taxon strains; assay: Overall conclusion on the selective media over the strain panel
Description: as §1, §2, §3, §4

[3] = system: Serratia fonticola 8001047 (Wild-type); assay: Growth and enzymatic activity on ChromID CPS-based selective media; conditions: cefpodoxime 4 mg/l (T), cefepime 0.25 mg/l (A), cefamandole 3 mg/l (B), cefuroxime 3 mg/l (C), each with 300 mg/l cloxacillin
Description: as §1, §2, §3, §4

[4] = system: Morganella morganii 9904104 (HL case); assay: as above; conditions: cefpodoxime 4 mg/l (T), cefepime 0.25 mg/l (A), cefamandole 3 mg/l (B), cefuroxime 3 mg/l (C), each with 300 mg/l cloxacillin
Description: as §1, §2, §3, §4

[5] = system: Proteus mirabilis 9709068 (ESBL); assay: as above; conditions: cefpodoxime 4 mg/l (T), cefepime 0.25 mg/l (A), cefamandole 3 mg/l (B), cefuroxime 3 mg/l (C), each with 300 mg/l cloxacillin
Description: as §1, §2, §3, §4

[6] = system: Klebsiella oxytoca 0105100 (HL case); assay: as above; conditions: cefpodoxime 4 mg/l (T), cefepime 0.25 mg/l (A), cefamandole 3 mg/l (B), cefuroxime 3 mg/l (C), each with 300 mg/l cloxacillin
Description: as §1, §2, §3, §4

[7] = system: Enterobacter spp 0503037 (Wild-type); assay: as above; conditions: cefpodoxime 4 mg/l (T), cefepime 0.25 mg/l (A), cefamandole 3 mg/l (B), cefuroxime 3 mg/l (C), each with 300 mg/l cloxacillin
Description: as §1, §2, §3, §4

[8] = system: Proteus mirabilis 0105109 (HL case); assay: as above; conditions: cefpodoxime 4 mg/l (T), cefepime 0.25 mg/l (A), cefamandole 3 mg/l (B), cefuroxime 3 mg/l (C), each with 300 mg/l cloxacillin
Description: as §1, §2, §3, §4

[9] = system: Proteus mirabilis 0105105 (HL case); assay: as above; conditions: cefpodoxime 4 mg/l (T), cefepime 0.25 mg/l (A), cefamandole 3 mg/l (B), cefuroxime 3 mg/l (C), each with 300 mg/l cloxacillin
Description: as §1, §2, §3, §4

[10] = system: Klebsiella oxytoca 0502094 (ESBL); assay: as above; set-up: key to the marks not given beside the values; conditions: cefpodoxime 4 mg/l (T), cefepime 0.25 mg/l (A), cefamandole 3 mg/l (B), cefuroxime 3 mg/l (C), each with 300 mg/l cloxacillin
Description: as §1, §2, §3, §4

[11] = system: Enterobacter aerogenes 0502112 (ESBL); assay: as above; set-up: key to the marks not given beside the values; conditions: cefpodoxime 4 mg/l (T), cefepime 0.25 mg/l (A), cefamandole 3 mg/l (B), cefuroxime 3 mg/l (C), each with 300 mg/l cloxacillin
Description: as §1, §2, §3, §4

[12] = system: Enterobacter spp 9306069 (HL case); assay: as above; set-up: key to the marks not given beside the values; conditions: cefpodoxime 4 mg/l (T), cefepime 0.25 mg/l (A), cefamandole 3 mg/l (B), cefuroxime 3 mg/l (C), each with 300 mg/l cloxacillin
Description: as §1, §2, §3, §4

[13] = system: Escherichia coli 0411146 (ESBL); assay: as above; set-up: key to the marks not given beside the values; conditions: cefpodoxime 4 mg/l (T), cefepime 0.25 mg/l (A), cefamandole 3 mg/l (B), cefuroxime 3 mg/l (C), each with 300 mg/l cloxacillin
Description: as §1, §2, §3, §4

For `CO/N=C(\C(=O)N[C@@H]1C(=O)N2C(C(=O)[O-])=C(C[N+]3(C)CCCC3)CS[C@H]12)c1csc(N)n1` [Cefepime, cefepime], the Enz act. ([1]; 18 h at 37° C.) was “++”, the Growth ([1]; 18 h at 37° C.) was “++” and the Enz act. ([1]; 24 h at 37° C.) was “++”. For the same compound, the Growth ([1]; 24 h at 37° C.) was “++”, the “sensitivity and specificity of detection of the ESBL strains” value ([2]; compared with cefpodoxime, cefamandole, cefuroxime media) was “best sensitivity and specificity” and the “discrimination between the ESBL-producing strains, the strains producing an HL Case or the wild-type taxon strains” value ([2]; medium A: 0.25 mg/L cefepime with 300 mg/l cloxacillin) was “good discrimination”. For the same compound, the Enz act. ([3]; 18 h at 37° C.) was “−”, the Growth ([3]; 18 h at 37° C.) was “−” and the Enz act. ([3]; 24 h at 37° C.) was “−”. The Growth ([3]; 24 h at 37° C.) was “−”, the Enz act. ([4]; 18 h at 37° C.) was “−” and the Growth ([4]; 18 h at 37° C.) was “−”. The Enz act. ([4]; 24 h at 37° C.) was “−”, the Growth ([4]; 24 h at 37° C.) was “−” and the Enz act. ([5]; 18 h at 37° C.) was “+”. The Growth ([5]; 18 h at 37° C.) was “+”, the Enz act. ([5]; 24 h at 37° C.) was “+” and the Growth ([5]; 24 h at 37° C.) was “+”. For the same compound, the Enz act. ([6]; 18 h at 37° C.) was “−”, the Growth ([6]; 18 h at 37° C.) was “−” and the Enz act. ([6]; 24 h at 37° C.) was “−”. The Growth ([6]; 24 h at 37° C.) was “−”, the Enz act. ([7]; 18 h at 37° C.) was “−” and the Growth ([7]; 18 h at 37° C.) was “−”. For the same compound, the Enz act. ([7]; 24 h at 37° C.) was “−”, the Growth ([7]; 24 h at 37° C.) was “−” and the Enz act. ([8]; 18 h at 37° C.) was “−”. The Growth ([8]; 18 h at 37° C.) was “−”, the Enz act. ([8]; 24 h at 37° C.) was “−” and the Growth ([8]; 24 h at 37° C.) was “−”. For the same compound, the Enz act. ([9]; 18 h at 37° C.) was “−”, the Growth ([9]; 18 h at 37° C.) was “−” and the Enz act. ([9]; 24 h at 37° C.) was “−”. For the same compound, the Growth ([9]; 24 h at 37° C.) was “−”, the Enz act. ([10]; 18 h at 37° C.) was “++” and the Growth ([10]; 18 h at 37° C.) was “++”. The Enz act. ([10]; 24 h at 37° C.) was “++”, the Growth ([10]; 24 h at 37° C.) was “++” and the Enz act. ([11]; 18 h at 37° C.) was “++”. The Growth ([11]; 18 h at 37° C.) was “++”, the Enz act. ([11]; 24 h at 37° C.) was “++” and the Growth ([11]; 24 h at 37° C.) was “++”. For the same compound, the Enz act. ([12]; 18 h at 37° C.) was “++”, the Growth ([12]; 18 h at 37° C.) was “++” and the Enz act. ([12]; 24 h at 37° C.) was “++”. The Growth ([12]; 24 h at 37° C.) was “++”, the Enz act. ([13]; 18 h at 37° C.) was “++” and the Growth ([13]; 18 h at 37° C.) was “++”. The Enz act. ([13]; 24 h at 37° C.) was “++” and the Growth ([13]; 24 h at 37° C.) was “++”.
For `COCC1=C(C(=O)O)N2C(=O)[C@@H](NC(=O)/C(=N\OC)c3csc(N)n3)[C@H]2SC1` [Cefpodoxime, cefpodoxime], the Enz act. ([1]; 18 h at 37° C.) was “++”, the Growth ([1]; 18 h at 37° C.) was “+” and the Enz act. ([1]; 24 h at 37° C.) was “++”. The Growth ([1]; 24 h at 37° C.) was “++”, the Enz act. ([3]; 18 h at 37° C.) was “+” and the Growth ([3]; 18 h at 37° C.) was “+”. The Enz act. ([3]; 24 h at 37° C.) was “++”, the Growth ([3]; 24 h at 37° C.) was “+” and the Enz act. ([4]; 18 h at 37° C.) was “−”. For the same compound, the Growth ([4]; 18 h at 37° C.) was “−”, the Enz act. ([4]; 24 h at 37° C.) was “−” and the Growth ([4]; 24 h at 37° C.) was “−”. For the same compound, the Enz act. ([5]; 18 h at 37° C.) was “+”, the Growth ([5]; 18 h at 37° C.) was “+” and the Enz act. ([5]; 24 h at 37° C.) was “+”. For the same compound, the Growth ([5]; 24 h at 37° C.) was “+”, the Enz act. ([6]; 18 h at 37° C.) was “++” and the Growth ([6]; 18 h at 37° C.) was “++”. The Enz act. ([6]; 24 h at 37° C.) was “++”, the Growth ([6]; 24 h at 37° C.) was “++” and the Enz act. ([7]; 18 h at 37° C.) was “++”. The Growth ([7]; 18 h at 37° C.) was “++”, the Enz act. ([7]; 24 h at 37° C.) was “++” and the Growth ([7]; 24 h at 37° C.) was “++”. The Enz act. ([8]; 18 h at 37° C.) was “−”, the Growth ([8]; 18 h at 37° C.) was “−” and the Enz act. ([8]; 24 h at 37° C.) was “−”. For the same compound, the Growth ([8]; 24 h at 37° C.) was “−”, the Enz act. ([9]; 18 h at 37° C.) was “−” and the Growth ([9]; 18 h at 37° C.) was “−”. The Enz act. ([9]; 24 h at 37° C.) was “−”, the Growth ([9]; 24 h at 37° C.) was “−” and the Enz act. ([10]; 18 h at 37° C.) was “++”. The Growth ([10]; 18 h at 37° C.) was “++”, the Enz act. ([10]; 24 h at 37° C.) was “++” and the Growth ([10]; 24 h at 37° C.) was “++”. For the same compound, the Enz act. ([11]; 18 h at 37° C.) was “++”, the Growth ([11]; 18 h at 37° C.) was “++” and the Enz act. ([11]; 24 h at 37° C.) was “++”. The Growth ([11]; 24 h at 37° C.) was “++”, the Enz act. ([12]; 18 h at 37° C.) was “++” and the Growth ([12]; 18 h at 37° C.) was “++”. For the same compound, the Enz act. ([12]; 24 h at 37° C.) was “++”, the Growth ([12]; 24 h at 37° C.) was “++” and the Enz act. ([13]; 18 h at 37° C.) was “++”. The Growth ([13]; 18 h at 37° C.) was “++”, the Enz act. ([13]; 24 h at 37° C.) was “++” and the Growth ([13]; 24 h at 37° C.) was “++”.
